Tests used:
Assay type in all cases: cell-based, Nicotiana tabacum
tobacco callus [1] = assay: Sensitivity of tobacco callus to compound H (survival)
Description: Tobacco (Nicotiana tabacum CV. Xanthi NC) was grown to 40 cm tall in a green house. And a leaf was cut, and the leaf was cut to square-shape of 5 cm width by a knife, then immersed in 70% ethanol for 30 seconds and in an aqueous solution of sodium hypochlorite (the effective concentration of chlorine was 1%) for 15 minutes to conduct surface-sterilization. After washing it for three times by sterilized water and removal of epidermis, the leaf fragment was suspended in 0.6M manitol (pH 5.8) containing an enzyme solution (1% cellulase onozuka R-10 and 0.05% macerozyme R-10 (manufactured by Yakult Co., Ltd.)) at 26° C. for three hours. After the enzyme treatment, protoplasts were washed with centrifugation by Murasige-Skoog (MS) medium for three times, and the obtained protoplast was suspended into MS solid medium containing 0.6% agar and 1 ppm of NAA and BA, to make a cell number of 10^8/ml, and pored into a dish at 1 cm thick. The protoplast was cultured at 27° C. under darkness to regenerate a callus. Four weeks after the incubation, the agar medium containing a callus grown up to about 1 mm large, was cut to rectangular shape having 1 cm width, and put on MS solid medium containing various concentration of the compound H (4-chloro-3-[2,4-dichloro-5(2-propenyloxy)phenyl]-5-difluoromethoxy-1-methyl-1H-pyrazole, described in Toku Kai Hei 3-163063), and the sensitivity of tobacco callus to photobleaching herbicide was examined. As shoen in Table 1, it become apparent that the callus completely dies at 10 nM.

tobacco callus [2] = assay: Selection course of callus lines tolerant to the photobleaching herbicide
Description: Using a medium containing the compound H containing two times concentration (20 nM) of the concentration at which tobacco callus completely dies, the selection of tobacco callus tolerant to photobleaching herbicide has been started. 1×10^5 of tobacco callus have been selected (Table 2), in the course of re-generation from 1×10^10 of the protoplast.
number of protoplast given: 1×10^10

sensitive cell line = assay: Accumulation of protoporphyrin IX in callus; settings: 1,200 nM compound H
ETR-056 line = assay: Accumulation of protoporphyrin IX in callus; settings: 1,200 nM compound H
Description: (§1) The present inventors have tried to analyze the resistant mechanism in the resistant strain tolerant to photobleaching herbicide. It has been reported that in a plant treated by photobleaching herbicide, protoporphyrin IX is accumulated, the present inventors tried to measure the accumulation of protoporphyrin IX periodically. A resistant callus which has been subcultured in MS liquid medium containing 1,200 nM of compound H under light condition was cultured for 24 hours in a dark condition, then transplanted into MS liquid medium containing 1,200 nM of compound H, and after 6, 12, 18, 24, 32 and 48 hours later, the callus was collected, and protoporphyrin IX was measured. The extraction and assay of the protoporphyrin 1× from the callus were conducted as follows (Matringe, M. et al. (1989) Biochem, J. 260:231-235.). That is, 500 mg (wet weight) of the callus was homogenized in a mortar, and extracted with 7.5 ml of acetone: 1N NH4OH (9:1). The extract was centrifuged at 3,000×g for 10 minutes, then the supernatant was collected. To the supernatant 2.5 ml of hexane was added and mixed sufficiently, then, the lower layer was recovered. Further, after washing with hexane two twice, the amount of protoporphyrin IX obtained in the lower layer was measured from the value of Ex 405 nm-Em 631.5 nm by a fluorescence spectrophotometer. All the extraction procedures were conducted under the safety light.

ETR-245 = assay: Accumulation of protoporphyrin IX in callus; settings: 1,200 nM compound H
Description: as §1

ETR-253 = assay: Accumulation of protoporphyrin IX in callus; settings: 1,200 nM compound H
Description: as §1

In the case of `C=CCOc1cc(-c2nn(C)c(OC(F)F)c2Cl)c(Cl)cc1Cl` [compound H, 4-chloro-3-[2,4-dichloro-5(2-propenyloxy)phenyl]-5-difluoromethoxy-1-methyl-1H-pyrazole], the “Survival Rate (%)” value (tobacco callus [1]; 2.5 nM) is reported as 30%, the “Survival Rate (%)” value (tobacco callus [1]; 5 nM) is reported as 10% and the “Survival Rate (%)” value (tobacco callus [1]; 8 nM (last line of the table)) is reported as 0%. The “Survival Rate (%)” value (tobacco callus [1]; 10 nM) was 0%, the “Survival Rate (%)” value (tobacco callus [1]; 20 nM) was 0% and the “Survival Rate (%)” value (tobacco callus [1]; 40 nM) was 0%. The “concentration at which the callus completely dies” value (tobacco callus [1]; tobacco callus on MS solid medium) was 10 nM, the “Number of resistant cell lines” value (tobacco callus [2]; 20 nM, protoplast given 1×10^10) was 100,000 and the “Number of resistant cell lines” value (tobacco callus [2]; 30 nM) was 50,000. For the same compound, the “Number of resistant cell lines” value (tobacco callus [2]; 50 nM) was 40,000, the “Number of resistant cell lines” value (tobacco callus [2]; 75 nM) was 7,200 and the “Number of resistant cell lines” value (tobacco callus [2]; 150 nM) was 254. The “Number of resistant cell lines” value (tobacco callus [2]; 300 nM) was 120, the “Number of resistant cell lines” value (tobacco callus [2]; 600 nM) was 66 and the “Number of resistant cell lines” value (tobacco callus [2]; 1200 nM) was 46. The “Number of resistant cell lines” value (tobacco callus [2]; 2,400 nM) was 36, the “Number of resistant cell lines” value (tobacco callus [2]; 5,000 nM) was 0 and the “amount of protoporphyrin IX” value (sensitive cell line; 24 hours) was 1.3 μg/g fresh weight. For the same compound, the “amount of protoporphyrin IX” value (sensitive cell line; 48 hours) was 1.9 μg/g fresh weight, the “amount of protoporphyrin IX” value (ETR-056 line; 24 hours) was 1.7 μg/g fresh weight and the “amount of protoporphyrin IX” value (ETR-056 line; 48 hours) was 4.6 μg/g fresh weight. The “accumulation of protoporphyrin IX” value (ETR-245) was “little accumulation” and the “accumulation of protoporphyrin IX” value (ETR-253) was “little accumulation”.
